# According to ChEMBL document CHEMBL5042544, “Discovery of a Potent and Selective ATAD2 Bromodomain Inhibitor with Antiproliferative Activity in Breast Cancer Models” (J Med Chem, 2022):
# Legend:
# [1] = biological target: Bromodomain-containing protein 3 (Homo sapiens, UniProt Q15059); test: Binding affinity to human BRD3 bromodomain 2 assessed as residual activity at 300 nM by BROMOscan method relative to control
# [2] = biological target: Bromodomain-containing protein 7 (Homo sapiens) (UniProt Q9NPI1); test: Binding affinity to human BRD7 bromodomain assessed as residual activity at 300 nM by BROMOscan method relative to control
# Sequence of Bromodomain-containing protein 7 (Homo sapiens) (Q9NPI1 whole entry): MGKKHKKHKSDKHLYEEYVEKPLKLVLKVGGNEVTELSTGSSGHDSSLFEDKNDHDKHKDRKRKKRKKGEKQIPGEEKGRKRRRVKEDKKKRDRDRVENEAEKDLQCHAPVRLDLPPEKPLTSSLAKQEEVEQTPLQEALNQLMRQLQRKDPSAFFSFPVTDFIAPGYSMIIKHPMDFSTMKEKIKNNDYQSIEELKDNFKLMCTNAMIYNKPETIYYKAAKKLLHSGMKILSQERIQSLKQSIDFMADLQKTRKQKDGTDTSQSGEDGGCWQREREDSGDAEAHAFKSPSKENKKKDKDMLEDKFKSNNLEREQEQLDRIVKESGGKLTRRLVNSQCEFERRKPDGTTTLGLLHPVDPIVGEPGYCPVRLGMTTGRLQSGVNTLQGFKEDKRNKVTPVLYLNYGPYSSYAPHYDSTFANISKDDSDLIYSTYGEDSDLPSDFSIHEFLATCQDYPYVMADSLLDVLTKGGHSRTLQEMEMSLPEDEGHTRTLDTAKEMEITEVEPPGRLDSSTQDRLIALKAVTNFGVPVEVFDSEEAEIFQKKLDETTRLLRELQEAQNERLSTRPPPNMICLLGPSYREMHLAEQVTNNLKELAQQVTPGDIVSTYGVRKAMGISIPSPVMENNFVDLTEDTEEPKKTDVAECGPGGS
# [3] = biological target: CREB-binding protein (Homo sapiens) (UniProt Q92793); test: Binding affinity to human CREBBP bromodomain assessed as residual activity at 300 nM by BROMOscan method relative to control
# [4] = biological target: Histone acetyltransferase KAT2A (Homo sapiens) (UniProt Q92830); test: Binding affinity to human GCN5L2 bromodomain assessed as residual activity at 300 nM by BROMOscan method relative to control
# Sequence of Histone acetyltransferase KAT2A (Homo sapiens) (Q92830 2-837 limits assumed): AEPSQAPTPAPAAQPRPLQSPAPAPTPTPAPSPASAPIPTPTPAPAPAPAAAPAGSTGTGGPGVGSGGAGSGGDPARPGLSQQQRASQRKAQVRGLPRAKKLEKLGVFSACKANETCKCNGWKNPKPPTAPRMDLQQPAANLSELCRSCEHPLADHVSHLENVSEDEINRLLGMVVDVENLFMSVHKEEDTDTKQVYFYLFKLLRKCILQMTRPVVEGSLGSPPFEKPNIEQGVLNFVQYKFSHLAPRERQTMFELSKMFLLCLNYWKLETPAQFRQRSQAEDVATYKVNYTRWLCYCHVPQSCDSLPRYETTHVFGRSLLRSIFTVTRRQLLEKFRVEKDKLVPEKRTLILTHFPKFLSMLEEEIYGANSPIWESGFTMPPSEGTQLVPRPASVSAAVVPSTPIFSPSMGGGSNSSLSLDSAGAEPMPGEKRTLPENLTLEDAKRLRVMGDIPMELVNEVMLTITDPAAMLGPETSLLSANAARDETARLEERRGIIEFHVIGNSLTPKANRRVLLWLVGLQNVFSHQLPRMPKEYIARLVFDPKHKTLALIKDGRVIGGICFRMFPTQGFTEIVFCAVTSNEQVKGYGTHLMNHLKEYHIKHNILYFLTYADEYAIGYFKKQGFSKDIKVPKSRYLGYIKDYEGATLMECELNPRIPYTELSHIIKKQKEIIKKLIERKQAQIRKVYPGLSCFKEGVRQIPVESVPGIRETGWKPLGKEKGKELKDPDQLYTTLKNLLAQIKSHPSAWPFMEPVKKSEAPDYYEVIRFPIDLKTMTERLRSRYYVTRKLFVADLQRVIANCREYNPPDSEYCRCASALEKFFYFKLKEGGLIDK
# [5] = biological target: SWI/SNF-related matrix-associated actin-dependent regulator of chromatin subfamily A member 2 (Homo sapiens, UniProt P51531); test: Binding affinity to human SMARCA2 bromodomain assessed as residual activity at 300 nM by BROMOscan method relative to control
# [6] = biological target: Transcription initiation factor TFIID subunit 1-like (Homo sapiens) (UniProt Q8IZX4); test: Binding affinity to human TAF1L bromodomain 2 assessed as residual activity at 300 nM by BROMOscan method relative to control
# [7] = biological target: Bromodomain and WD repeat-containing protein 1 (Homo sapiens, UniProt Q9NSI6); test: Binding affinity to human WDR9 bromodomain 2 assessed as residual activity at 300 nM by BROMOscan method relative to control
# Sequence of Bromodomain and WD repeat-containing protein 1 (Q9NSI6 whole entry): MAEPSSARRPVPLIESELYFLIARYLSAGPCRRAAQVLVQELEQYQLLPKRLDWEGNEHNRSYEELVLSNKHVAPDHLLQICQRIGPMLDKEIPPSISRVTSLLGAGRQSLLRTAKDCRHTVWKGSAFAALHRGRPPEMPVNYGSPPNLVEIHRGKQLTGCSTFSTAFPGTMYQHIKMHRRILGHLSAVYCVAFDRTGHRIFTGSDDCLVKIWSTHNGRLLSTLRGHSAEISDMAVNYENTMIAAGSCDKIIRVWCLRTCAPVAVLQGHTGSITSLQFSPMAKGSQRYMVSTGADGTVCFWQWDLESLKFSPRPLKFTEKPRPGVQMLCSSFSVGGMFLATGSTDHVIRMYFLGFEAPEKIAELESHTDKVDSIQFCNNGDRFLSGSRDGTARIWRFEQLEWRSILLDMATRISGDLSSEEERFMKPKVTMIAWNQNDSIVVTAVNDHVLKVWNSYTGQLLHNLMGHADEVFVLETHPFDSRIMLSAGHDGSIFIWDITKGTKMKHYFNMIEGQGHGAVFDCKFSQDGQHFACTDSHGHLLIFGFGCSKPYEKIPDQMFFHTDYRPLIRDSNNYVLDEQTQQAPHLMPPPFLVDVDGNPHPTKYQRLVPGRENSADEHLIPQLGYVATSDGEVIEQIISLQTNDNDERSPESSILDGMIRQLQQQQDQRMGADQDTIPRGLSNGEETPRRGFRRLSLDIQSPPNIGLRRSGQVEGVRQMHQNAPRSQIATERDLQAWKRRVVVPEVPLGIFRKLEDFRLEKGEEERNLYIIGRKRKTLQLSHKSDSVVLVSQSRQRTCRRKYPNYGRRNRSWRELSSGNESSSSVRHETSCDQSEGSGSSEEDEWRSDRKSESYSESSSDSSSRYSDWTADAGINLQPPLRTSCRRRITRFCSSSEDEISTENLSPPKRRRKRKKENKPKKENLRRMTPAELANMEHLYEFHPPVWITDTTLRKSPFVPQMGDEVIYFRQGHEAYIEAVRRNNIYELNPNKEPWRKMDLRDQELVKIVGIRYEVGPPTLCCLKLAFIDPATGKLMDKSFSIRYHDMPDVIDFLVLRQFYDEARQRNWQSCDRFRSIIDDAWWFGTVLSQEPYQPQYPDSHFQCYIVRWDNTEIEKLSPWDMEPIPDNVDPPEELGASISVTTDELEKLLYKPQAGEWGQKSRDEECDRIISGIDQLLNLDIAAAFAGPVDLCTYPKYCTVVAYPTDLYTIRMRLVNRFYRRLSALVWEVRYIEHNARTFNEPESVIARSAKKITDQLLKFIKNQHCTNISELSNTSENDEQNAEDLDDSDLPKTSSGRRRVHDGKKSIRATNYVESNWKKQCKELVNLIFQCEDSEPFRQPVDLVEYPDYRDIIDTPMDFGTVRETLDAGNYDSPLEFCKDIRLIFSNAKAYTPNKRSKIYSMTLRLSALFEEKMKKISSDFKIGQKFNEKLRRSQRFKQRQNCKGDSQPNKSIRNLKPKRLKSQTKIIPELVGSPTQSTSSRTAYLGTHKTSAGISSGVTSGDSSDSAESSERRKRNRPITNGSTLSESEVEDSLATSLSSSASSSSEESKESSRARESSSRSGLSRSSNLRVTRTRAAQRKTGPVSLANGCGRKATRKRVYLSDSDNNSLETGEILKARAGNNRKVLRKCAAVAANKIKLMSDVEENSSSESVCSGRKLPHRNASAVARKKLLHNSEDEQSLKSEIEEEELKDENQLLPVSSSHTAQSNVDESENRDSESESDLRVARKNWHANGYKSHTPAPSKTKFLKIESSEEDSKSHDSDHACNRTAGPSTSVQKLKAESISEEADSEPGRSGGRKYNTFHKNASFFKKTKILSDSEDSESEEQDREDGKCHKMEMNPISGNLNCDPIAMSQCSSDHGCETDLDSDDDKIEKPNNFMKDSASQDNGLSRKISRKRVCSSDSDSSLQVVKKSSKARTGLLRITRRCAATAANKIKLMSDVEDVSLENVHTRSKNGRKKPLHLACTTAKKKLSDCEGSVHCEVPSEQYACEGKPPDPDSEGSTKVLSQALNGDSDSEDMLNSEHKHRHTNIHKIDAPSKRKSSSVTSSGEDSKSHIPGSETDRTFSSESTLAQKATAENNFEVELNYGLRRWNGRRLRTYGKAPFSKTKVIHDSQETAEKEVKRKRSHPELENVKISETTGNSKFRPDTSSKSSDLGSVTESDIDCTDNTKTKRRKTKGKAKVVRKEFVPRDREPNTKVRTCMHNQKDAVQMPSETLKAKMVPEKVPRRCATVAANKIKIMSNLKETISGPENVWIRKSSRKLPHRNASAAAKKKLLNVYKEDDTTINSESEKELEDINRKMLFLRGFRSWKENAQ
# Sequence of Bromodomain-containing protein 3 (Q15059 2-726 limits assumed): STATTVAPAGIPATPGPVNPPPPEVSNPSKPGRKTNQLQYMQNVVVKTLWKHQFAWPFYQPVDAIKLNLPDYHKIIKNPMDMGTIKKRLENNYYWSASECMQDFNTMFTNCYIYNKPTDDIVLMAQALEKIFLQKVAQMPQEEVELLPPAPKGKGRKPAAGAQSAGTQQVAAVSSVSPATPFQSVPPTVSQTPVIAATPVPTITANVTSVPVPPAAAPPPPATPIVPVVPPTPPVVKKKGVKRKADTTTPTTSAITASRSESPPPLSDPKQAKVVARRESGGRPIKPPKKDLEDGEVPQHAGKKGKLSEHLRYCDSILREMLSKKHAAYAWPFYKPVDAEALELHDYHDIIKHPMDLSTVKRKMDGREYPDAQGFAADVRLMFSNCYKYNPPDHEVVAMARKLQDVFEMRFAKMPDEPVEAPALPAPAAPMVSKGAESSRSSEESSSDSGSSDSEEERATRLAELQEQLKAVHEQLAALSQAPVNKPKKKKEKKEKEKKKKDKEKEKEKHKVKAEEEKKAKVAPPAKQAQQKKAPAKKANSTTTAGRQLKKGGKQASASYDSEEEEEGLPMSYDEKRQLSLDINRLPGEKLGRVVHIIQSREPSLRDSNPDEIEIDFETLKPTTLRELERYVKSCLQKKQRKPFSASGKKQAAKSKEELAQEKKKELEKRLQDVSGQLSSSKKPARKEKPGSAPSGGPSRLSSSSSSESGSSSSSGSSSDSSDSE
compound,measurement,setting,value
Cc1nnc2c(NC3CCN(CC(C)(C)F)CC3)cc(C(=O)N3[C@@H]4c5ccccc5C[C@H]3C(=O)N[C@@H]4C(C)C)nn12,Activity,[1],56%
same,Activity,[2],73%
same,Activity,[3],61%
same,Activity,[4],73%
same,Activity,[5],36%
same,Activity,[6],82%
same,Activity,[7],53%
